Test results: US10654816B2, “Compounds and compositions for treating conditions associated with NLRP activity” (NOVARTIS INFLAMMASOME RESEARCH, INC., priority 2017, dated 2020)

tested on: IL-1β production in PMA-differentiated THP-1 cells; assay: IL-1β production in PMA-differentiated THP-1 cells stimulated with gramicidin (hTHP-1 assay, HTRF readout; Procedures 1-3); assay type: cell-based, human; conditions: Homo sapiens, THP-1, hTHP-1 assay containing 2% fetal bovine serum; average; class symbols; read-out: hTHP-1 IC50 (Average IC50 of compounds in hTHP-1 assay)
Description: The Following Protocol is Suitable for Testing the Activity of the Compounds Disclosed Herein. Procedure 1: IL-1B Production in PMA-Differentiated THP-1 Cells Stimulated with Gramicidin.
THP-1 cells were purchased from the American Type Culture Collection and sub-cultured according to instructions from the supplier. Cells were cultured in complete RPMI 1640 (containing 10% heat inactivated FBS, penicillin (100 units/ml) and streptomycin (100 μg/ml)), and maintained in log phase prior to experimental setup. Prior to the experiment, compounds were dissolved in dimethyl sulfoxide (DMSO) to generate a 30 mM stock. The compound stock was first pre-diluted in DMSO to 3, 0.34, 0.042 and 0.0083 mM intermediate concentrations and subsequently spotted using Echo550 liquid handler into an empty 384-well assay plate to achieve desired final concentration (e.g. 100, 33, 11, 3.7, 1.2, 0.41, 0.14, 0.046, 0.015, 0.0051, 0.0017 μM). DMSO was backfilled in the plate to achieve a final DMSO assay concentration of 0.37%. The plate was then sealed and stored at room temperature until required.
THP-1 cells were treated with PMA (Phorbol 12-myristate 13-acetate) (20 ng/ml) for 16-18 hours. On the day of the experiment the media was removed and adherent cells were detached with trypsin for 5 minutes. Cells were then harvested, washed with complete RPMI 1640, spun down, and resuspended in RPMI 1640 (containing 2% heat inactivated FBS, penicillin (100 units/ml) and streptomycin (100 μg/ml). The cells were plated in the 384-well assay plate containing the spotted compounds at a density of 50,000 cells/well (final assay volume 50 μl). Cells were incubated with compounds for 1 hour and then stimulated with gramicidin (5 μM) (Enzo) for 2 hours. Plates were then centrifuged at 340 g for 5 min. Cell free supernatant (40 μL) was collected using a 96-channel PlateMaster (Gilson) and the production of IL-1β was evaluated by HTRF (cisbio). The plates were incubated for 18 h at 4° C. and read using the preset HTRF program (donor emission at 620 nm, acceptor emission at 668 nm) of the SpectraMax i3x spectrophotometer (Molecular Devices, software SoftMax 6). A vehicle only control and a dose titration of CRID3 (100-0.0017 μM) were run concurrently with each experiment.
Procedure 2: IL-1β Production in PMA-Differentiated THP-1 Cells Stimulated with Gramicidin.
THP-1 cells were purchased from the American Type Culture Collection and sub-cultured according to instructions from the supplier. Prior to experiments, cells were cultured in complete RPMI 1640 (containing 10% heat inactivated FBS, penicillin (100 units/ml) and streptomycin (100 μg/ml)), and maintained in log phase prior to experimental setup. Prior to the experiment THP-1 were treated with PMA (Phorbol 12-myristate 13-acetate) (20 ng/ml) for 16-18 hours. Compounds were dissolved in dimethyl sulfoxide (DMSO) to generate a 30 mM stock.
On the day of the experiment the media was removed and adherent cells were detached with trypsin for 5 minutes. Cells were then harvested, washed with complete RPMI 1640, spun down, resuspended in RPMI 1640 (containing 2% heat inactivated FBS, penicillin (100 units/ml) and streptomycin (100 μg/ml). The cells were plated in a 384-well plate at a density of 50,000 cells/well (final assay volume 50 μl). Compounds were first dissolved in assay medium to obtain a 5× top concentration of 500 μM. 10 step dilutions (1:3) were then undertaken in assay medium containing 1.67% DMSO. 5× compound solutions were added to the culture medium to achieve desired final concentration (e.g. 100, 33, 11, 3.7, 1.2, 0.41, 0.14, 0.046, 0.015, 0.0051, 0.0017 μM). Final DMSO concentration was at 0.37%. Cells were incubated with compounds for 1 hour and then stimulated with gramicidin (5 μM) (Enzo) for 2 hours. Plates were then centrifuged at 340 g for 5 min. Cell free supernatant (40 μL) was collected using a 96-channel PlateMaster (Gilson) and the production of IL-1β was evaluated by HTRF (cisbio). […]

IC50 | Compound
1000 to 5000 nM | CN(C)Cc1cccc(S(N)(=O)=NC(=O)Nc2c3c(cc4c2CCC4)CCC3)c1 (stereo not shown) [Example 51, 3-((dimethylamino)methyl)-N′-(1,2,3,5,6,7-hexahydro-s-indacen-4-ylcarbamoyl)benzene-sulfonimidamide]
1000 to 5000 nM | CC(C)c1cc(F)cc(C(C)C)c1NC(=O)N=S(N)(=O)c1cnc2ccccc2c1 (stereo not shown) [Example 218, N′-((4-fluoro-2,6-diisopropyl-phenyl)carbamoyl)quinoline-3-sulfonimidamide]
5000 to 30000 nM | CC(C)c1cc(F)cc(C(C)C)c1NC(=O)N=S(N)(=O)c1ccc(S(C)(=O)=O)cc1 (stereo not shown) [Example 42, N′-(4-fluoro-2,6-diisopropylphenylcarbamoyl)-4-(methylsulfonyl)benzenesulfonim idamide]
1000 to 5000 nM | NS(=O)(=NC(=O)Nc1c2c(cc3c1CCC3)CCC2)c1ccc(CN2CCCC2)cc1 (stereo not shown) [Example 236, N′-(1,2,3,5,6,7-hexahydro-s-indacen-4-ylcarbamoyl)-4-(pyrrolidin-1-ylmethyl)benzenesulfonimidamide]
1000 to 5000 nM | CNCc1ccc(S(N)(=O)=NC(=O)Nc2c3c(cc4c2CCC4)CCC3)c(F)c1 (stereo not shown) [Example 287, 2-fluoro-N′-((1,2,3,5,6,7-hexahydro-s-indacen-4-yl)carbamoyl)-4-((methylamino)methyl)benzene-sulfonimidamide]
8 to 40 nM | Cc1oc([S@@](N)(=O)=NC(=O)Nc2c3c(cc4c2CCC4)CCC3)cc1C(C)(C)O [Example 2, (S)—N′-(1,2,3,5,6,7-hexahydro-s-indacen-4-ylcarbamoyl)-4-(2-hydroxypropan-2-yl)-5-methylfuran-2-sulfonimidamide]
200 to 1000 nM | CCc1cc(OC(F)F)cc(C(C)C)c1NC(=O)N=S(N)(=O)c1cnc(C(C)(C)O)s1 (stereo not shown) [Example 18, N′-(4-(difluoromethoxy)-2-ethyl-6-isopropylphenylcarbamoyl)-2-(2-hydroxypropan-2-yl)thiazole-5-sulfonimidamide]
1000 to 5000 nM | CC(C)(O)c1ncc(S(N)(=O)=NC(=O)Nc2c3c(cc4c2CCC4O)CCC3)s1 (stereo not shown) [Example 230]
40 to 200 nM | Cc1oc(S(N)(=O)=NC(=O)Nc2c(C(C)C)cc(F)cc2C(C)C)cc1C(C)(C)O (stereo not shown) [Example 10, N′-(4-fluoro-2,6-diisopropylphenylcarbamoyl)-4-(2-hydroxypropan-2-yl)-5-methylfuran-2-sulfonimidamide]
1000 to 5000 nM | COCCN(C)Cc1ccc(S(N)(=O)=NC(=O)Nc2c3c(cc4c2CCC4)CCC3)cc1 (stereo not shown) [Example 232, N′-(1,2,3,5,6,7-hexahydro-s-indacen-4-ylcarbamoyl)-4-(((2-methoxyethyl)(methyl)amino)meth-yl)benzenesulfonimidamide]
200 to 1000 nM | CC(C)c1cc(OC(F)F)cc(C2CC2)c1NC(=O)N=S(N)(=O)c1ccc(C(C)(C)O)cc1F (single isomer, unassigned) [Example 166, (S)- or (R)-N′-((2-cyclopropyl-4-(difluoromethoxy)-6-isopropylphoxyproyl)-2-fluoro-4-(2-hydroxypropan-2-yl)benzenesulfonimidamide]
200 to 1000 nM | Cc1oc([S@](N)(=O)=NC(=O)Nc2c3c(cc4c2CCC4)CCC3)cc1C(C)(C)O (single isomer, unassigned) [Example 3]
5000 to 30000 nM | CNS(=O)(=NC(=O)Nc1c2c(cc3c1CCC3)CCC2)c1cc(C(C)(C)O)cs1 (stereo not shown) [Example 246]
1000 to 5000 nM | CC(C)c1cc(OC(F)F)cc(C2CC2)c1NC(=O)N=S(N)(=O)c1ccc(CN(C)C)cc1 (single isomer, unassigned) [Example 135, (R)- or (S)-N′-(2-cyclopropyl-4-(difluoromethoxy)-6-isopropylphenylcarbamoyl)-4-((dimethylamino)methyl)benzenesulfonimidamide]
8 to 40 nM | CC(C)c1cc(OC(F)F)cc(C(C)C)c1NC(=O)N=S(N)(=O)c1sc(C(C)(C)O)cc1F (stereo not shown) [Example 17, N′-(4-(difluoromethoxy)-2,6-diisopropylphenylcarbamoyl)-3-fluoro-5-(2-hydroxypropan-2-yl)thiophene-2-sulfonimidamide]
40 to 200 nM | Cc1oc(S(N)(=O)=NC(=O)Nc2c3c(nc4c2CCC4)CCC3)cc1C(C)(C)O (stereo not shown) [Example 221, N′-((1,2,3,5,6,7-hexahydrodicyclopenta[b,e]pyridin-8-yl)carbamoyl)-4-(2-hydroxypropan-2-yl)-5-methylfuran-2-sulfonimidamide]
5000 to 30000 nM | CC(C)c1cc(F)cc(C(C)C)c1NC(=O)N=S(N)(=O)c1cccc2c(N(C)C)cccc12 (stereo not shown) [Example 431, 1-{amino[5-(dimethylamino)naphthalen-1-yl]oxo-λ^6-sulfanylidene}-3-[4-fluoro-2,6-bis(propan-2-yl)phenyl]urea]

same assay, conditions: Homo sapiens, THP-1, hTHP-1 assay containing 2% fetal bovine serum; average; given as bound; read-out: hTHP-1 IC50 (Average IC50 of compounds in hTHP-1 assay)

IC50 | Compound
> 30000 nM | COCCN(C)Cc1ccc(S(N)(=O)=NC(=O)Nc2c3c(cc4c2CCC4)CCC3)cc1 (single isomer, unassigned) [Example 389, (S) or (R)-N′-((1,2,3,5,6,7-hexahydro-s-indacen-4-yl)carbamoyl)-4-(((2-methoxyethyl)(meth-yl)amino)methyl)benzene-sulfonimidamide]
> 30000 nM | Cc1cc(NC(=O)N=S(N)(=O)c2cc(C)c(C(C)(C)O)s2)cc(C)n1 (stereo not shown) [Example 9, N′-((2,6-dimethylpyridin-4-yl)carbamoyl)-4-methyl-5-(2-hydroxypropan-2-yl)thiophene-2-sulfonimidamide]
> 30000 nM | NCc1ccc(S(N)(=O)=NC(=O)Nc2c3c(cc4c2CCC4)CCC3)cc1 (single isomer, unassigned) [Example 412, (S) or (R)-4-(aminomethyl)-N′-((1,2,3,5,6,7-hexahydro-s-indacen-4-yl)carbamoyl)benzene-sulfonimidamide]
> 30000 nM | COCc1ccccc1S(N)(=O)=NC(=O)Nc1c(C(C)C)cc(F)cc1C(C)C (stereo not shown) [Example 213, N′-((4-fluoro-2,6-diisopropylphenyl)carbamoyl)-2-(methoxymethyl)benzene-sulfonimidamide]

same assay, conditions: hTHP-1 assay containing 2% fetal bovine serum; average; class symbols; read-out: hTHP-1 IC50 (Average IC50 of compounds in hTHP-1 assay)

IC50 | Compound
8 to 40 nM | CC(C)(O)c1ncc([S@](N)(=O)=NC(=O)Nc2c3c(cc4c2CC4)CCC3)s1 (single isomer, unassigned) [Example 224]
1000 to 5000 nM | CC(C)(O)c1ncc(S(N)(=O)=NC(=O)Nc2c3c(cc4c2CCC4O)CCC3)s1 (single isomer, unassigned) [Example 339, (S, S) or (S, R)-N′-((l-hydroxy-1,2,3,5,6,7-hexahydro-s-indacen-4-yl)carbamoyl)-2-(2-hydroxypropan-2-yl)thiazole-5-sulfonimidamide]
